Like-named read-outs stand apart in the source and are kept apart here. Marks after values point to notes of the source that are not given here.
How the values were obtained:
[1] = molecular target: T1, HigB2 toxin (Vibrio cholerae serotype O1, UniProt Q9KMA6); test: Competition ITC (global fit of direct and competition titrations with nanobody-HigB2 complex); format: binding; design: made in house; conditions: for ΔG (association): competition ITC (Nb6/Nb10), VP-ITC, 4 µM HigB2; for ΔG (association) / ΔH (association) / −TΔS (association): 20 mM sodium phosphate pH 7.5, 150 mM NaCl, three replicates
T1 sequence (Q9KMA6 1-110): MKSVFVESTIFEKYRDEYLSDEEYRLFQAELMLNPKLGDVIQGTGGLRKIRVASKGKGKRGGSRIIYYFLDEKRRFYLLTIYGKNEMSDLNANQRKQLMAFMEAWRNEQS

[2] = system: CcdB2; conditions: ref Drobnak et al., 2013, cited from earlier work
Protocol: Supplement DataSheet1.docx, table 1: Table S1. Thermodynamic parameters and structural properties of the complexes. All parameters are reported at T = 25°C. | column: Thermodynamic parameters || Nonetheless, a handful of examples of IDP binders with ultra-high affinity have been characterized to date. […] Complexes are ordered according to the degree of energy optimization as estimated by the ΔH bind/ASAint values. For the HigA2_3-23-HigB2 complex the degree of energy optimization is similar to one observed for the pairs of globular high affinity binders (Supplementary Table S1, Figure 3A). […] The high affinit ...

[3] = molecular target: T1, HigB2 toxin; conditions: full-length HigA2; temperature-dependent ITC; ref Hadži et al., 2017a; cited from earlier work
[4] = system: E9-Im9 (colicin DNase - immunity protein); conditions: ref Keeble et al., 2006, cited from earlier work
Protocol: Supplement DataSheet1.docx, table 1: Table S1. Thermodynamic parameters and structural properties of the complexes. All parameters are reported at T = 25°C. | column: Thermodynamic parameters

[5] = 25°C, competition ITC, listed as Full-length HigA2

Molecule `CC(C)C[C@H](NC(=O)[C@H](C)NC(=O)[C@H](CO)NC(=O)[C@H](CO)NC(=O)[C@H](CC(C)C)NC(=O)[C@H](CCC(=O)O)NC(=O)[C@H](C)NC(=O)[C@H](Cc1ccccc1)NC(=O)[C@H](CC(C)C)NC(=O)[C@H](CC(=O)O)NC(=O)[C@H](CCCNC(=N)N)NC(=O)[C@@H](N)CC(N)=O)C(=O)N[C@H](C(=O)N[C@@H](CCC(=O)O)C(=O)N[C@@H](C)C(=O)N[C@@H](CCCCN)C(=O)N[C@@H](CCC(N)=O)C(=O)N[C@@H](Cc1c[nH]cn1)C(=O)N[C@@H](CO)C(=O)N[C@@H](CCC(=O)O)C(=O)NCC(=O)N[C@@H](Cc1c[nH]c2ccccc12)C(=O)O)C(C)C` [HigA2_3-23] has a Kd [1] of 3 pM.
For “CcdA37-72 (RRLRAERWKAENQEGMAEVARFIEMNGSFADENRDW; UniProt P62552 37-72, looked up, fragment)”, the “-TΔS (binding)” value ([2]; 25°C, binding contribution) is given as -0.5 kcal/mol, the “ΔG (binding)” value ([2]; 25°C, binding contribution) is given as -19.4 kcal/mol and the “ΔH (binding)” value ([2]; 25°C, binding contribution) is given as -18.9 kcal/mol. The “-TΔS (folding)” value ([2]; 25°C, folding contribution) was 20.4 kcal/mol, the “ΔG (folding)” value ([2]; 25°C, folding contribution) was 3.8 kcal/mol and the “ΔH (folding)” value ([2]; 25°C, folding contribution) was -16.6 kcal/mol. For the same molecule, the “-TΔS (association)” value ([2]; 25°C) was 19.9 ± 0.3 kcal/mol, the “ΔG (association)” value ([2]; 25°C) was -15.6 ± 0.1 kcal/mol and the “ΔH (association)” value ([2]; 25°C) was -35.5 ± 0.2 kcal/mol. The “ΔCp (association)” value [2] was -0.63 ± 0.02 kcal mol^-1 K^-1.
With HigA2 the “ΔG (association)” value ([1]; 25°C) was -14.7 kcal/mol, the “ΔG (association)” value ([1]; 25°C, listed as Full-length HigA2) was -14.7 ± 0.9 kcal/mol and the “ΔH (association)” value ([1]; 25°C, competition ITC) was -31.5 kcal/mol. For the same molecule, the “−TΔS (association)” value ([1]; 25°C, competition ITC) was 16.8 kcal/mol, the “ΔH (association)” value [1, 5] was -31.5 ± 1.0 kcal/mol and the “−TΔS (association)” value [1, 5] was 16.8 ± 1.9 kcal/mol. For the same molecule, the Kd ([1]; 25°C, competition ITC, value given in abstract, introduction, discussion and Figure 4 under the name HigA2, read-out: KD stated for HigA2-HigB2) was 3 pM and the “ΔCp (association)” value [3] was −0.95^a kcal mol^−1 K^-1.
In the case of E9-Im9, the “-TΔS” value ([4]; 25°C) is listed as -8.1 ± 0.5 kcal/mol, the ΔG ([4]; 25°C) is listed as -18.6 ± 0.1 kcal/mol and the ΔCp [4] is listed as -0.45 kcal mol^-1 K^-1.
